Experimental data published in patent publication US20070059778A1, “Modified colony assay” (priority 2005, published 2007).

Tested on: erythroid colonies (hematopoietic progenitors)
Experiment: Hematopoietic CFC assay with anti-GpA-FITC staining, erythroid colony formation in cultures containing 5-FU
Type: cell-based, Human
Details: erythroid colonies stained with anti-GPA-FITC, day 14, densitometry
Description: Human BM, CB or MPB mononuclear cells were suspended in a methylcellulose-based culture medium containing cytokines (MethoCult™ H4434, StemCell Technologies) (StemCell Technologies Methocult™ Flyer; StemCell Technologies 2003 Catalogue pp. 86-125) at a concentration of between 1×10^4 and 1×10^5 cells per 1.1 mL of medium. The culture medium was then dispensed into 35 mm culture dishes using 3 mL syringes with blunt end needles, with 1.1 mL of medium per dish. All cultures were incubated for a total of 14 days at 37° C., 5% CO2, 100% humidity. Colonies were enumerated and classified by bright-field microscopy into the following categories based on size and morphology: CFU-E, BFU-E, CFU-GM, CFU-GEMM (StemCell Technologies Colony Atlas).
Standard CFC assays were prepared as described in example 1. […] After 14 days of culture at 37° C. the dishes were inspected using an inverted fluorescence microscope. […] The erythroid colonies were counted using bright field and fluorescence. Both methods gave very similar results: 27 colonies per dish by bright field illumination; 26 colonies by fluorescence.
A CFC-assay was set up as described in Example 2. […] Colonies were examined and photographed on day 14 and colony size and fluorescence intensity were analysed by densitometry.

O=c1[nH]cc(F)c(=O)[nH]1 [5-FU, 5-Fluoro-Uracil]
size of fluorescent colonies, as measured by surface area and perimeter length (versus cultures without 5-FU (FIG. 4A)): decreased
fluorescence intensity of colonies (versus cultures without 5-FU (FIG. 4B)): decreased
